The target in this assay is T1, CHK1 kinase (Homo sapiens, UniProt O14757).
T1 construct: The kinase domain is expressed in baculovirus and purified by the GST tag; GST; made in house
T1 sequence (O14757 9-265 limits assumed): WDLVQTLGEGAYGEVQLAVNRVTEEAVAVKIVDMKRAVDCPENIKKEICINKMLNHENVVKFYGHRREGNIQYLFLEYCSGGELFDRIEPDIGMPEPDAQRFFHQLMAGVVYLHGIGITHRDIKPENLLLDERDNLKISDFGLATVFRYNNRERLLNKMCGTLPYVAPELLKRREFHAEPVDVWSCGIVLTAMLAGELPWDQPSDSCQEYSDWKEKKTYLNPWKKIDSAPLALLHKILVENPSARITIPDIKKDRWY
As to the kind of experiment: Checkpoint Kinase 1 Assay (Scintillation Proximity Assay). The settings on record: assay not given; IC50s are determined in the Checkpoint Kinase 1 assay. Type of assay: biochemical. As for the experimental part:
Checkpoint Kinase 1 Assay: This in vitro assay measures the inhibition of CHK1 kinase by compounds. The kinase domain is expressed in baculovirus and purified by the GST tag. Purified protein and biotinylated peptide substrate (Cdc25C) is then used in a 384 well automated Scintillation Proximity Assay (SPA). Specifically, peptide, enzyme and reaction buffer are mixed and aliquoted into a 384 well plate containing dilution series of compounds and controls. Cold and hot ATP are then added to initiate the reaction. After 2 hours, a SPA bead slurry, […] and EDTA are added to stop the reaction and capture the biotinylated peptide. Plates are then counted on a Topcount. Data is analyzed and IC50s determined for individual compounds.
On the technique in general: SPA uses beads or plates that emit light when radiolabelled molecules are held near them.

These results are taken from patent US7423061B2, “Substitute thiophenes and uses thereof” (AstraZeneca AB, priority 2003, dated 2008).

In general, IC50 refers to the concentration that gives 50% inhibition. Low values mean inhibition by little substance, high ones a need for much substance.

Structures can show the parent of a compound that is named as a salt.

With `CCN(CC)CCOc1ccc(-c2cc(C(=O)NC3CCCNC3)c(NC(N)=O)s2)cc1` (stereo not shown) [Example 2, 2-[(aminocarbonyl)amino]-5-{4-[2-(diethylamino)ethoxy]phenyl}-N-piperidin-3-ylthiophene-3-carboxamide trifluoroacetate], the IC50 worked out at 10 nM.
